T1: WT E. coli PNP (Escherichia coli, UniProt P0ABP8)
T1 construct: made in house
T1 sequence (P0ABP8 2-239 limits assumed): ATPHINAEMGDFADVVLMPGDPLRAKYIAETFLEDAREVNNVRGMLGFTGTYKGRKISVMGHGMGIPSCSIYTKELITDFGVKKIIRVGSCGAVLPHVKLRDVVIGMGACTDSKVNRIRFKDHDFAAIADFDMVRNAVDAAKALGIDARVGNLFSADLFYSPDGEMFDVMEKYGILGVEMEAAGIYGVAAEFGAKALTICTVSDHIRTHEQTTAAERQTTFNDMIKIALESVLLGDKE

B1: WT E. coli PNP (Escherichia coli K-12) (protein)
chain: T1 sequence (P0ABP8 2-239 limits assumed)
notes: made in house

What was measured:
WT E. coli PNP [1] = target: T1, WT E. coli PNP; set-up: method as in PMID 21672603; conditions: pH 7.0, 50 mM Hepes, 25 °C, 50 mM phosphate; cited from earlier work
Y160W PNP mutant [2] = target: T2, Y160W PNP mutant (Escherichia coli, UniProt P0ABP8, Y161W); assay: Enzymatic specific activity, spectrophotometric assay; format: biochemical, E. coli; set-up: made in house; host or cells: E. coli DH5α-T1; conditions: pH 7.0, 50 mM Hepes, 25 °C, 50 mM phosphate; for Enzymatic specific activity relative to WT: Y160W vs WT; for Enzymatic specific activity: Y160W
T2 sequence (P0ABP8 2-239 Y161W): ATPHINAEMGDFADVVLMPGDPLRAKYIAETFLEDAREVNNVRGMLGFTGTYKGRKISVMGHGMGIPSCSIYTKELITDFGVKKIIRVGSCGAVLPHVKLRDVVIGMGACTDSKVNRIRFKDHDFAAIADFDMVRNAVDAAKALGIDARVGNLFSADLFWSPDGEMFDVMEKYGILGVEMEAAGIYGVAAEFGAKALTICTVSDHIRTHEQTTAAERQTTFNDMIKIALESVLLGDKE
Procedure: (§1) All activity measurements and kinetic studies were done in 50 mM Hepes/HCl buffer pH 7.0 at 25 °C as previously described for the WT E. coli PNP and its active-site mutants, using direct spectrophotometric assay for adenosine, guanosine and 7-methylguanosine as substrates, and a coupled assay with xanthine oxidase in the case of inosine[13],[28],[29]. Activity measurements were performed for each protein sample, before and after each experiment as a control of the state of the protein.

WT E. coli PNP [3] = target: T1, WT E. coli PNP; assay: as above; format: biochemical; conditions: WT PNP (reference = 100); pH 7.0, 50 mM Hepes, 25 °C, 50 mM phosphate
Procedure: as §1

WT E. coli PNP [4] = target: T1, WT E. coli PNP; set-up: method as in PMID 30337572; conditions: m^7Guo as variable substrate, 50 mM phosphate, Michaelis–Menten; cited from earlier work
Y160W PNP mutant [5] = target: T2, Y160W PNP mutant; conditions: nucleoside as variable substrate, 50 mM phosphate, Michaelis–Menten, pH 7.0, 25 °C
Procedure: Activity measurements were performed for each protein sample, before and after each experiment as a control of the state of the protein.
(§2) The classical Michaelis–Menten equation was fitted to the kinetic curves (i.e. initial rate of the reaction, v0, vs. initial substrate concentration, c0):1 v0c0=Vmax1c0/c0+KM1
(§3) Coefficients a and b express the degree of cooperation between the subunits in a dimer, while constants KM1 and Vmax1 characterize the active sites of the enzyme when the neighbouring site is free.
(§4) A more complex model was used if there was a statistically significant decrease in the residual sum of squares as judged by the F test at 95% confidence level.

WT E. coli PNP [6] = target: T1, WT E. coli PNP; assay: Kinetic studies with variable substrate; format: biochemical; conditions: nucleoside as variable substrate, 50 mM phosphate, Michaelis–Menten, pH 7.0, 25 °C
Procedure: as §1, §2, §3, §4

[7] = system: Nc1nc2c(ncn2[C@@H]2O[C@H](CO)[C@@H](O)[C@H]2O)c(=O)[nH]1; assay: purified protein, by the assay type; conditions: other: Y160W, nucleoside as variable substrate, 50 mM phosphate, Michaelis–Menten, pH 7.0, 25 °C
[8] = substrate: Nc1nc2c(ncn2[C@@H]2O[C@H](CO)[C@@H](O)[C@H]2O)c(=O)[nH]1; assay: Kinetic studies with variable substrate; format: biochemical, E. coli; conditions: other: WT, nucleoside as variable substrate, 50 mM phosphate, Michaelis–Menten, pH 7.0, 25 °C
Procedure: as §1, §2, §3, §4

Row | Molecule | Enzymatic specific activity (WT E. coli PNP [1]) [U/mg] | Enzymatic specific activity relative to WT (Y160W PNP mutant [2]) [%] | Enzymatic specific activity (Y160W PNP mutant [2]) [U/mg] | Enzymatic specific activity relative to WT (WT E. coli PNP [3]) [%] | further results
1 | O=c1[nH]cnc2c1ncn2[C@@H]1O[C@H](CO)[C@@H](O)[C@H]1O [Ino, Inosine] | 103.2 ± 4.0 | 88 | 91.1 ± 8.9 | 100 | 
2 | C[n+]1cn([C@@H]2O[C@H](CO)[C@@H](O)[C@H]2O)c2nc(N)[nH]c(=O)c21 [m^7Guo, 7-Methylguanosine] | 21.4 ± 1.6 | 108 | 23.2 ± 1.2 | 100 | Km (WT E. coli PNP [4]): 27.2 µM; Km (Y160W PNP mutant [5]): 71.3 ± 3 µM; Vmax (Y160W PNP mutant [5]): 21 ± 1 U/mg; Vmax (WT E. coli PNP [6]): 22.7 ± 0.3 U/mg
3 | Nc1nc2c(ncn2[C@@H]2O[C@H](CO)[C@@H](O)[C@H]2O)c(=O)[nH]1 [Guo, Guanosine] | 60.4 ± 6.7 | 60 | 36.2 ± 2.0 | 100 | 
4 | Y160W PNP mutant (Escherichia coli K-12; Y161W) |  |  |  |  | Km [7]: 128 ± 2 µM; Vmax [7]: 42.8 ± 0.3 U/mg
5 | Nc1ncnc2c1ncn2[C@@H]1O[C@H](CO)[C@@H](O)[C@H]1O [Ado, Adenosine] | 58.5 ± 5.9 | 112 | 65.6 ± 14.2 | 100 | 
6 | B1 |  |  |  |  | Km [8]: 28 ± 4 µM; Vmax [8]: 51.1 ± 2.3 U/mg
